From patent publication US20220002663A1, “SELECTIVE SALMONELLA OR E. COLI CULTIVATION METHOD, COMPOSITIONS AND USES” (SOLUS SCIENTIFIC SOLUTIONS LTD, priority 2018, published 2022)

Legend:
Type in all cases: cell-based
[1] = test system: Salmonella; experiment: Inclusivity: culture of pure Salmonella serovars in BPW with selective agent or supplement, ELISA detection (FIG. 4, FIG. 6); conditions: 5 mg/L 4PYcq; 20 hour culture; same inoculums of pure Salmonella cultures
From the text: FIG. 4 illustrates inclusivity study data where multiple Salmonella serovars were artificially inoculated into either Buffered Peptone Water (BPW) on its own, or BPW enriched with either a selective cefsulodin, novobiocin, brilliant green lyophilised supplement run in the absence or presence of an oatmeal food matrix; or a selective cefsulodin, novobiocin, 4PYcq lyophilised supplement run in the absence of an oatmeal food matrix.
FIG. 6 illustrates inclusivity study data where multiple Salmonella serovars were artificially inoculated into BPW enriched with a selective cefsulodin, novobiocin, 4PYcq lyophilised supplement at low levels.

[2] = test system: competing microflora; experiment: Suppression of competing microflora in cultures of sample types; conditions: 5 mg/L; range of sample types, including dairy and probiotic foods
[3] = test system: Salmonella; experiment: Recovery and detection of Salmonella from spices, herbs and flavourings, single step culture (FIGS. 9-13); conditions: spices/flavourings from the allium family; FIG. 13
From the text: This was at fractional inoculation level (2-8 cfu). Accordingly a method with the ‘Spice neutraliser’ supplement is capable of detecting Salmonella from spice/herb/flavouring samples, even when the Salmonella is present at fractional levels.
This was at a high inoculation level (40-92 cfu).
The data provided in FIGS. 9A and 9B are derived from samples that were inoculated with a relatively high level of Salmonella (FIG. 9A—77-114cfu; FIG. 9B—38 cfu).
FIG. 10 provides data derived from fractional inoculation levels (2-8 cfu). In this instance the cells are cultured in the 4PYcq/Cefsulodin/Novobiocin supplement at half the concentration of that used previously, i.e. at a working concentration of 2.5 mg/L 4PYcq, 4 mg/L Cefsulodin and 5 mg/L Novobiocin.

SMILES	identification of Salmonella by ELISA after culture [1]	suppression of competing microflora [2]	recovery of Salmonella [3]
CC(C)(C)c1cc(/C=N/N=C(\N)c2ccncc2)c(O)c(C(C)(C)C)c1 [4PYcq]	positive identification of the presence of Salmonella	sufficient suppression of competing microflora	–
O=S([O-])[O-].[K+].[K+] [potassium salt component, potassium sulphite]	–	–	sufficient for recovery of Salmonella
